Results taken from PubChem BioAssay AID977605 (Broad Institute, 2014).
Calls of active or inactive are those of the source.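 Rule for the calls: active = fitted curve reaches 40% activation below the top valid tested dose, in every test run; inconclusive = test runs disagree on the call; inactive = the rest, including effects opposite to the expected direction.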

Experiment: endothelial E-selectin upregulation by compounds – imaging, HUVEC, cherry-picked samples, dose response (AID 977605);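 note: signal is the share of imaged cells scored positive for E-selectin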
Conditions: HUVEC E-selectin immunostaining, percent of TNF-alpha response over vehicle

Structure (SMILES) | activation (at 19.5 µM (top of the series)) | further results
CCC(=O)N(C)C[C@H]1Oc2cc(C3=CCCC3)ccc2S(=O)(=O)N([C@@H](C)CO)C[C@@H]1C | -0.074% (inactive) | 
CCOC(=O)C1CCCN(C(=O)c2cc(S(=O)(=O)N(C)C)ccc2N2CCCC2)C1 (stereo not drawn) | 0.51% (inactive) | 
C[C@@H]1CN([C@@H](C)CO)C(=O)Cc2cc(NC(=O)Cc3cn(C)c4ccccc34)ccc2O[C@H]1CN(C)Cc1ccc(C(F)(F)F)cc1 | 1.99% (inactive) | 
C[C@H]1CN([C@@H](C)CO)C(=O)c2cc(NC(=O)Nc3ccc(C(F)(F)F)cc3)ccc2O[C@@H]1CN(C)S(=O)(=O)c1ccccc1 |  | activation (at 21 µM (top of the series)): 0.012% (inactive)
CC(C)NC(=O)N(C)C[C@H]1Oc2ccc(NC(=O)CCC(F)(F)F)cc2CC(=O)N([C@H](C)CO)C[C@@H]1C | -0.115% (inactive) | 
Cc1ccc(C(=O)NCC(=O)Nc2ccncc2)cc1C | -0.08% (inactive) | 
COc1ccc(OC)c(NC(=O)c2csc(Cl)c2OC)c1 | 2.39% (inactive) | 
C[C@H]1CN([C@@H](C)CO)C(=O)Cc2cc(NC(=O)C3CCCCC3)ccc2O[C@H]1CN(C)C(=O)NC1CCCCC1 | -0.185% (inactive) | 
Cc1noc(C)c1S(=O)(=O)N(C)C[C@H]1Oc2ccc(NS(C)(=O)=O)cc2CC(=O)N([C@@H](C)CO)C[C@H]1C | 0.259% (inactive) | 
COc1ccccc1-c1nnc(NC(=O)CSc2nncn2C)s1 | -0.056% (inactive) | 
Cc1noc(C)c1S(=O)(=O)N(C)C[C@H]1Oc2ccc(NC(=O)Nc3ccc(F)cc3)cc2CC(=O)N([C@H](C)CO)C[C@@H]1C | -0.001% (inactive) | 
C[C@H](NC(=O)C[C@H]1CC[C@H]2[C@H](COc3ccc(NS(=O)(=O)c4ccc(Cl)cc4)cc3C(=O)N2C)O1)c1ccccc1 |  | activation (at 21 µM (top of the series)): 0.192% (inactive)
O=C(Nc1cccc(C(F)(F)F)c1)c1cc[n+]([O-])cc1 | 0.066% (inactive) | 
CCCCOCC1CN(CCCC)S(=O)(=O)c2c(Oc3ccc(C(C)C)cc3)cccc2O1 (stereo not drawn) | -0.279% (inactive) | 
C[C@@H]1CN([C@H](C)CO)C(=O)c2cc(NC(=O)CCN3CCOCC3)ccc2O[C@H]1CN(C)C(=O)Nc1ccc(C(F)(F)F)cc1 | -0.038% (inactive) | 
C[C@@H]1CN([C@H](C)CO)C(=O)c2cccc(NC(=O)C3CCOCC3)c2O[C@@H]1CN(C)Cc1ccc(Oc2ccccc2)cc1 | 0.031% (inactive) | 
COc1ccc(NC(=O)N(C)C[C@@H]2Oc3ccc(NC(=O)c4ccncc4)cc3CC(=O)N([C@H](C)CO)C[C@@H]2C)cc1 | -0.135% (inactive) | 
Cc1noc(C)c1NC(=O)N(C)C[C@@H]1Oc2ccc(NS(=O)(=O)c3cccs3)cc2CC(=O)N([C@H](C)CO)C[C@H]1C | -0.165% (inactive) | 
CCCNC(=O)N(C)C[C@@H]1Oc2ncc(C3=CCCC3)cc2C(=O)N([C@H](C)CO)C[C@H]1C | 0.267% (inactive) | 
C[C@H]1CN([C@@H](C)CO)C(=O)Cc2cc(NS(C)(=O)=O)ccc2O[C@@H]1CN(C)Cc1ccncc1 |  | activation (at 21 µM (top of the series)): 0.217% (inactive)
C[C@H](CO)N1C[C@H](C)[C@@H](CN(C)Cc2ccc(C(=O)O)cc2)Oc2ccc(NC(=O)Nc3ccc(F)cc3)cc2CC1=O | 0.279% (inactive) | 
C[C@H]1CN([C@@H](C)CO)C(=O)c2cc(N(C)C)ccc2O[C@H]1CN(C)Cc1ccc(C(=O)O)cc1 | 0.082% (inactive) | 
Cc1ccc(S(=O)(=O)NC(Cc2ccccc2)C(=O)O)cc1C (stereo not drawn) | -0.133% (inactive) | 
C[C@@H]1CN([C@@H](C)CO)C(=O)Cc2cc(NC(=O)NC3CCCCC3)ccc2O[C@H]1CN(C)C(=O)Nc1ccc2c(c1)OCO2 | 16.7% (inactive) | 

Structure (SMILES) | activation (at 19.5 µM (top of the series)) | further results
COc1ccc(C2c3[nH]c4ccccc4c3C[C@H]3C(=O)N(CC(C)C)CC(=O)N23)c(OC)c1 (stereo partly drawn) | 0.036% (inactive) | 
COc1ccc(S(=O)(=O)Nc2cccc3c2O[C@H](CN(C)C(=O)Nc2cccc4ccccc24)[C@@H](C)CN([C@H](C)CO)C3=O)cc1 | -0.185% (inactive) | 
CN1C(=O)c2cc(NC(=O)C3CCOCC3)ccc2OC[C@@H]2O[C@H](CC(=O)NCc3ccccc3F)CC[C@H]21 |  | activation (at 21 µM (top of the series)): -0.036% (inactive)
Cc1ccc(OCc2nc(-c3cccnc3)no2)cc1C | -0.108% (inactive) | 
C[C@@H]1CN([C@@H](C)CO)C(=O)c2cc(NC(=O)NC3CCCCC3)ccc2O[C@@H]1CN(C)S(=O)(=O)c1ccc(Cl)cc1 | -0.037% (inactive) | 
C[C@@H]1CN([C@H](C)CO)C(=O)Cc2cc(NS(C)(=O)=O)ccc2O[C@H]1CN(C)S(=O)(=O)c1cn(C)cn1 | -0.104% (inactive) | 
C[C@H](CO)N1C[C@H](C)[C@@H](CN(C)C)Oc2ccc(NC(=O)CCCN(C)C)cc2CC1=O | -0.172% (inactive) | 
C[C@H]1CN([C@@H](C)CO)C(=O)Cc2cc(NC(=O)CCCCCC(=O)Nc3ccccc3N)ccc2O[C@H]1CN(C)Cc1ccc(Cl)c(Cl)c1 |  | activation (at 21 µM (top of the series)): 5.06% (inactive)
C[C@@H]1CN([C@@H](C)CO)C(=O)c2cc(NC(=O)Nc3ccc4c(c3)OCO4)ccc2O[C@H]1CN(C)C | -0.091% (inactive) | 
C[C@@H]1CN([C@H](C)CO)C(=O)Cc2cc(NC(=O)Cc3ccccc3)ccc2O[C@H]1CN(C)C(=O)Nc1cccc2ccccc12 |  | activation (at 18 µM (top of the series)): 0.676% (inactive)
C[C@H]1CN([C@@H](C)CO)C(=O)c2cccc(NS(C)(=O)=O)c2O[C@H]1CN(C)S(C)(=O)=O | 0.973% (inactive) | 
C[C@@H]1CN([C@H](C)CO)C(=O)c2cccc(NC(=O)Nc3ccc4c(c3)OCO4)c2O[C@H]1CN(C)C(=O)Nc1ccc(C(F)(F)F)cc1 |  | activation (at 21 µM (top of the series)): 0.262% (inactive)
C[C@H]1CN([C@@H](C)CO)C(=O)c2cc(N(C)C)ccc2O[C@H]1CN(C)C(=O)Nc1ccc2c(c1)OCO2 | 2.2% (inactive) | 
COc1ccc(S(=O)(=O)Nc2cccc3c2O[C@H](CN(C)C(=O)Nc2c(C)noc2C)[C@H](C)CN([C@H](C)CO)C3=O)cc1 | -0.109% (inactive) | 
CC(C)c1ccc(C(=O)Nc2nnc(S(=O)(=O)N3CCCCC3)s2)cc1 | -0.055% (inactive) | 
CCc1cc(C(=O)Nc2nc(-c3ccccn3)cs2)sc1C | 0.665% (inactive) | 
Cc1nc(N2CCN(c3ccccn3)CC2)c2c(C)c(C(=O)Nc3ccc(F)cc3Cl)sc2n1 | -0.158% (inactive) | 
COc1ccc(S(=O)(=O)Nc2ccc3c(c2)C(=O)N([C@H](C)CO)C[C@@H](C)[C@@H](CN(C)Cc2ccc(Cl)c(Cl)c2)O3)cc1 | -0.147% (inactive) | 
COc1ccc(S(=O)(=O)N(C)C[C@@H]2Oc3ccc(NC(=O)c4ccncc4)cc3C(=O)N([C@H](C)CO)C[C@H]2C)cc1 | -0.082% (inactive) | 
CC(C)NC(=O)Nc1ccc2c(c1)CC(=O)N([C@H](C)CO)C[C@@H](C)[C@@H](CN(C)Cc1ccc(Cl)c(Cl)c1)O2 |  | activation (at 21 µM (top of the series)): 0.047% (inactive)
C[C@@H]1CN([C@@H](C)CO)C(=O)c2cc(NC(=O)Cc3ccccc3)ccc2O[C@@H]1CN(C)Cc1ccc(Cl)c(Cl)c1 | 0.002% (inactive) | 
COc1ccc(S(=O)(=O)N(C)C[C@@H]2Oc3ccc(NC(=O)CCCN(C)C)cc3C(=O)N([C@@H](C)CO)C[C@@H]2C)cc1 |  | activation (at 21 µM (top of the series)): -0.143% (inactive)
Cc1noc(C)c1NC(=O)Nc1cccc2c1O[C@@H](CN(C)Cc1ccc(C(F)(F)F)cc1)[C@H](C)CN([C@@H](C)CO)C2=O | 0.145% (inactive) | 
C[C@H]1CN([C@@H](C)CO)C(=O)Cc2cc(NS(=O)(=O)c3ccc(F)cc3)ccc2O[C@H]1CN(C)S(=O)(=O)c1ccc(Cl)cc1 | -0.018% (inactive) | 
